# Results from PMC2832019, “In Vitro Metabolic and Mitogenic Signaling of Insulin Glargine and Its Metabolites” (PLoS ONE, 2010).
# Read-outs that look alike come from different tables or passages of the source.
# Columns and labels:
# human IR-B = assay: IR-B autophosphorylation (In-Cell Western); assay type: cell-based; conditions: for EC50: CHO cells overexpressing IR-B, 15 min at 37°C, In-Cell Western, means ± SEM, at least three times, read-out: IR-B auto-phosphorylation EC50
# From the text: (§1) CHO cells expressing either the IR-A or the IR-B isoform were used for IR autophosphorylation assays using In-Cell Western. For the analysis of IGF1R autophosphorylation the receptor was overexpressed in a mouse embryo fibroblast 3T3 Tet off cell line (BD Bioscience, Heidelberg, Germany) that was stably transfected with IGF1R tetracycline-regulatable expression plasmid resulting in the expression of ∼2.6×10^5 IGF1R per cell (as determined by FACS analysis, unpublished data). In order to determine the receptor tyrosine phosphorylation level, cells were seeded into 96-well plates and grown for 48 h. Cells were serum starved with serum-free medium αMEM (PAN Biotech GmbH, Aidenbach, Germany) for 3–4 h. […] After incubation the medium was discarded and the cells were fixed in 3.75% freshly prepared para-formaldehyde for 20 min. Cells were permeabilized with 0.1% Triton-X-100 in PBS for 20 min. Blocking was performed with Odyssey blocking buffer (LI-COR, Bad Homburg, Germany) overnight at 4°C. Anti-pTyr 4G10 (Millipore, Schwalbach, Germany) was incubated for 2 h at room temperature. After incubation of the primary antibody, cells were washed with PBS+0.1% Tween20. The secondary anti-mouse-IgG-800-CW antibody (Rockland, Gilbertsville, PA, USA) was incubated for 1 h. Results were normalized by the quantification of DNA with TO-PRO3 dye (Invitrogen, Karlsruhe, Germany). Data were obtained as relative units (RU) and are presented as fold over basal.
# (§2) For each experiment, IC50 or EC50 values were obtained using the 4-parameter logistic model according to Ratkowsky and Reedy (1986). The adjustment was obtained by non-linear regression using the Levenberg-Marquardt algorithm in SAS v9.1.3 software via Biost@t-Speed V2.0-LTS internal application. If necessary, lower and upper asymptotes were set to 0 and 100, respectively.
# The binding of a constant concentration of [^125I]insulin to plasma membranes from CHO cells overexpressing either IR-A or IR-B was measured in presence of increasing concentrations of unlabeled competing ligand after incubation at room temperature for 12 h. All data has been corrected for non-specific binding and are expressed as percentage of [^125I]insulin in absence of competing ligand. To analyze the insulin-stimulated activation and subsequent autophosphorylation of the insulin receptor CHO cells overexpressing the human IR-A (C) or IR-B (D) were stimulated for 15 min at 37°C with increasing concentrations of peptides, then the cells were fixed with 3.7% PFA and the amount of phosphotyrosines was analyzed via In-Cell Western. The data represent mean values ± SEM of at least 3 individual experiments measured in quadruplicate.
# Insulin receptor autophosphorylation was studied using CHO cells overexpressing either IR-A or IR-B. For detection an immunocytochemical microplate assay (In-Cell Western) based on two-colour fluorescence was applied.
# human IGF1R = assay: IGF1R autophosphorylation (In-Cell Western); assay type: cell-based; conditions: for EC50: MEF cells overexpressing IGF1R, 15 min at 37°C, In-Cell Western, means ± SEM, at least three times, read-out: IGF1R auto-phosphorylation EC50; for more potent in stimulation of IGF1R autophosphorylation: relative to human insulin
# From the text: as §1, §2
# Figure 4 Activity of insulin analogs on the human IGF1R and mitogenic potential in Saos-2 cells. Analysis of binding to the human IGF1R using [^125I]IGF-1 as radioactive ligand (A) and analysis of the insulin-stimulated autophosphorylation of the human IGF1R overexpressed in MEF cells (B) were done as described in figure 2 and Materials and Methods. Data are given as means ± SEM. […] Confluent cells were starved for 4 h and then incubated for 19 h with increasing concentrations of IGF-1, insulin or analog in serum free medium. [^14C]thymidine was added for further 6 h and the radioactivity measured in a Wallac Micro Scintillation counter. Data are given as means ± SEM from octuplicate sample.
# primary rat adipocytes = assay: Metabolic activity: insulin-stimulated lipid synthesis in primary rat adipocytes; assay type: cell-based, rat (Sprague-Dawley); conditions: for lipid synthesis EC50 higher relative to human insulin: fold higher EC50 relative to insulin; for EC50: incorporation of [3-^3H]glucose into toluene-extractable lipids, 90 min at 37°C, pH 7.4, means ± SEM, five different adipocyte preparations, read-out: Metabolic potency EC50; for metabolic activity, EC50 lower than M1: relative to M1
# Protocol: The metabolic activity of the different insulins was compared using insulin-stimulated lipid synthesis in primary rat adipocytes. Primary rat adipocytes were prepared according to published procedures, [33]. Briefly, rats (Sprague-Dawley, male, 140–160 g, fed ad libitum) were provided from Charles-River (Sulzfeld, Germany) and killed by cervical dislocation in accordance with the German animal protection law. The animals were used for the preparation of primary adipocytes, exclusively, and were not subjected to any pretreatment, such as drug administration or starvation. Epididymal fat pads were rapidly removed, stripped of blood vessels and placed in PBS. Subsequently, the pads were washed with KRBB bubbled with 5% O2/95% CO2. Each pad was then cut into two or three pieces. Two pieces of each were incubated with 1.5 mL of digestion buffer (10 mg collagenase [Worthington Inc., CLS, type I, 190 units/mg] in 10 ml of KRBB containing 9 mg glucose) for 15–30 min at 37°C in a shaking water bath (240 cycles/min). Released adipocytes were separated from residual undigested tissue by passage through a nylon web (mesh size 150 µm) and washed by flotation in a plastic tube two or three times with KRBB and adjusted to the appropriate titer of 3.5×10^5 cells/mL. For distribution of the adipocytes, 200 µL of the suspension was removed under continuous gentle stirring with a plastic agitator.
# Lipid synthesis was measured as the incorporation of [3-^3H]glucose into toluene-extractable lipids, at a final cell titer of […] in KRBB (1.2 mM KH2PO4, 1.2 mM MgSO4, 4.8 mM KCl, 25 mM NaHCO3, 120 mM NaCl, 2.4 mM CaCl2, containing 1% BSA [defatted, fraction V, Sigma, Deisenhofen, Germany] and 37 µM glucose and adjusted to pH 7.4) according to published procedures (Müller et al., 2008) with the following modifications: 680 µL of KRBB were filled into 10-mL scintillation vials and supplemented with 100 µL of D-[3-^3H]glucose (2 µCi/mL KRBB, 1 mM, Amersham-Buchler, Braunschweig, Germany) and 20 µL of insulin solution in KRBB. Lipid synthesis was started by the addition of 200 µL of adipocyte suspension in KRBB. After incubation for 90 min at 37°C under an atmosphere of 5% O2/95% CO2 and gentle shaking, 10 mL of toluene-based scintillation cocktail (Quickszint 501, Zinsser, Germany) was added. The samples were vigorously mixed and after phase separation (2 to 4 h) measured for radioactivity by liquid scintillation counting. Determination of the radioactivity contained in the toluene phase and corrected for non-specific spill-over of the radioactivity of unincorporated radiolabelled glucose contained in the water phase predominantly reflects the de novo lipid synthesis.
# as §2
# Figure 3 Metabolic activity of insulin glargine and its metabolites in rat adipocytes. To compare the metabolic activity of glargine and its metabolites insulin-stimulated lipid synthesis in isolated primary rat adipocytes was analyzed by incorporation of [3-^3H]glucose into toluene-extractable lipids and subsequent measurement of radioactivity by liquid scintillation counting. The adipocytes were treated with increasing concentrations of insulin, analogs, metabolites or IGF-1 for 90 min at 37°C in the presence of [3-^3H]glucose. Each point represents the mean ± SEM of five different adipocyte preparations with activity measurements done in duplicate.
Substance,EC50 (human IR-B),EC50 (human IGF1R),lipid synthesis EC50 higher relative to human insulin (primary rat adipocytes),EC50 (primary rat adipocytes),more potent in stimulation of IGF1R autophosphorylation (human IGF1R),"metabolic activity, EC50 lower than M1 (primary rat adipocytes)",less potent relative to IGF-1 (IGF1R autophosphorylation) (human IGF1R),EC50 (human IGF1R; listed as M2),EC50 (human IGF1R; listed as M1),decrease in IR-B autophosphorylation activity (human IR-B; relative to human insulin)
IGF-1: IGF-1 obtained from R&D Systems and Cell Sciences,> 1000 nM,2.9 ± 0.4 nM,422 fold,19 ± 0.93 nM,–,–,–,–,–,–
"[Gly^A21,Arg^B31]insulin [Glargine IM]",20.9 ± 1.3 nM,179 ± 19.6 nM,–,0.098 ± 0.012 nM,2 fold,0.6 fold,–,–,–,–
[Asp^B10]insulin,3.32 ± 0.78 nM,72.7 ± 7.6 nM,–,0.031 ± 0.005 nM,about 5 fold,–,~25 times,–,–,–
Human insulin: human insulin produced by recombinant DNA techniques or enzymatic semisynthesis,11.7 ± 1.4 nM,447 ± 38.7 nM,–,0.045 ± 0.003 nM,–,–,–,–,–,–
"[Gly^A21,des-Thr^B30]insulin [Glargine M2]",21.4 ± 2.3 nM,485 ± 43.6 nM,–,0.087 ± 0.007 nM,–,0.6 fold,–,> 400 nM,–,–
[Gly^A21]insulin [Glargine M1],18.1 ± 1.7 nM,644 ± 56.9 nM,3.0 fold,0.139 ± 0.009 nM,–,–,–,–,> 400 nM,–
"[Gly^A21,Arg^B31,Arg^B32]insulin [Glargine]",23.6 ± 2.1 nM,87.5 ± 10 nM,1.4 fold,0.066 ± 0.005 nM,about 5 fold,–,~30 times,–,–,30–50%
